The target in experiment [1] is wild-type human cardiac sodium channel, hNaV 1.5 (Peak INa) (Homo sapiens, UniProt Q14524). The experiment can be described thus: Peak INa screening assay (tonic block and use-dependent block). The format is cell-based. In short, it runs like this: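 HEK293 cells stably expressing hNaV1.5 alpha subunit without beta subunits, whole-cell automated patch clamp. Compound at 1 or 3 μM added twice 60 s apart, then 200 s equilibration before tonic and use-dependent block voltage protocols. Block calculated versus compound-free condition with rundown correction; intracellular solution CsF/CsCl-based, pH 7.35.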
Sequence of wild-type human cardiac sodium channel, hNaV 1.5 (Peak INa) (Q14524 whole entry): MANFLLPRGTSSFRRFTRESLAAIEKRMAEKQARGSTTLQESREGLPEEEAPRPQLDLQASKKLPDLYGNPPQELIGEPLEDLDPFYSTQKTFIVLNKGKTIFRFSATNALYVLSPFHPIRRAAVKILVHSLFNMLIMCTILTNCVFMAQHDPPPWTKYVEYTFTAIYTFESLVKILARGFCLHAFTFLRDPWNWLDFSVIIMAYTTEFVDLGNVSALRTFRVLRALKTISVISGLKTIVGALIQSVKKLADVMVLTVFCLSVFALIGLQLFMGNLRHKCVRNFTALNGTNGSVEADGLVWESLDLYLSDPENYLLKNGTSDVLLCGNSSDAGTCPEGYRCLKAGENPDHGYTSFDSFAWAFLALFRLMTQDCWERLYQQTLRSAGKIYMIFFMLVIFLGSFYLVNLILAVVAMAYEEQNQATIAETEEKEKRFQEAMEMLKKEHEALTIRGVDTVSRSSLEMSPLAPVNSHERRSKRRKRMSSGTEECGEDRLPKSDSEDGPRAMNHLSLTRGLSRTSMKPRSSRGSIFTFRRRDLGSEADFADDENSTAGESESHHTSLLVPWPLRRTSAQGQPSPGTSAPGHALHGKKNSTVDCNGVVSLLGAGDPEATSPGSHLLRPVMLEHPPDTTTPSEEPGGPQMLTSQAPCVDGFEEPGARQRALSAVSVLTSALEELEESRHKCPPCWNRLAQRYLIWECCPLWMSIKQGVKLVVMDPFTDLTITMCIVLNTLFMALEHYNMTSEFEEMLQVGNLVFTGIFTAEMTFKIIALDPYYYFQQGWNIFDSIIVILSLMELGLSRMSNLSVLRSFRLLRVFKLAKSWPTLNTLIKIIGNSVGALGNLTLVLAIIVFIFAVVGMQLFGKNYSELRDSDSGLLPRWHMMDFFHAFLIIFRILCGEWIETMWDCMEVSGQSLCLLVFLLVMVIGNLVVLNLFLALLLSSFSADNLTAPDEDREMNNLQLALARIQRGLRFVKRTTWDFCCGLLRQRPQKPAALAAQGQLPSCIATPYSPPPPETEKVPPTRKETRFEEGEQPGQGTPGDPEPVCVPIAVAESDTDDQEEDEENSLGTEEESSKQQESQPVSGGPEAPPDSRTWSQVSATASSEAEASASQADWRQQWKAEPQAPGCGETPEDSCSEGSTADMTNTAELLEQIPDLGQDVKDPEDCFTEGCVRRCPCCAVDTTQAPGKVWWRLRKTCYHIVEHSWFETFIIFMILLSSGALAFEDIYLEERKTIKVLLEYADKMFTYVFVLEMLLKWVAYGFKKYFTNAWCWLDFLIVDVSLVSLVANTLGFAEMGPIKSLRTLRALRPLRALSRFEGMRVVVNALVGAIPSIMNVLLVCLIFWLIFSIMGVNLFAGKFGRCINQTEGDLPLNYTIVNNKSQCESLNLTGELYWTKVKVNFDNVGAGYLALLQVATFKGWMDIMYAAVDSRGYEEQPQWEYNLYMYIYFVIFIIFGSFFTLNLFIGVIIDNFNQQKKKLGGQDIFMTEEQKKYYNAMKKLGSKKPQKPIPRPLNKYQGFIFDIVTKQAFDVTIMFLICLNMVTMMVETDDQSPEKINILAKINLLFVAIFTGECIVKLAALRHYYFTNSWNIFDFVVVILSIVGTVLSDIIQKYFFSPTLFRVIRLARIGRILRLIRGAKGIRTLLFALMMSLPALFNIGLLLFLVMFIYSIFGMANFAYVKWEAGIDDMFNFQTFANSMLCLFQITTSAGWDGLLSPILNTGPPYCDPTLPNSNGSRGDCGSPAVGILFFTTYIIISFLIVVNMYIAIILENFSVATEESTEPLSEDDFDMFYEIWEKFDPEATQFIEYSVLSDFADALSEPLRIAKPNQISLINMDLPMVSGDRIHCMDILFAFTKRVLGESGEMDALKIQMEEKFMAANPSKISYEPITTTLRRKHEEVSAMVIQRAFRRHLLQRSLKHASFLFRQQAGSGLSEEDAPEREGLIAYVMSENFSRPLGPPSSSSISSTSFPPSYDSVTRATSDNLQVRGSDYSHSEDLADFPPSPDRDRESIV

Experiment [2] deals with wild-type human cardiac sodium channel, hNaV 1.5 (Late INa) (Homo sapiens, UniProt Q14524). The experiment in a line: Late INa screening assay (whole cell patch clamp, QPatch, Tefluthrin-induced late current). The format is cell-based. The following applies: HEK293, % inhibition (percent block of late INa) at 1 uM; HEK293 hNaV1.5; 10 μM Tefluthrin; read-out: Nav1.5 Late INa 1 uM. An outline of the steps: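 HEK293 cells stably expressing hNaV1.5 without beta subunits, whole-cell patch clamp at 23-25° C; late current induced by 10 μM Tefluthrin, measured 240-265 ms into 250 ms steps to −20 mV from −120 mV at 0.1 Hz. Compounds typically 0.3 or 1 μM, three additions over 5 min; percent block normalized to 0Na baseline with rundown correction.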
Sequence of wild-type human cardiac sodium channel, hNaV 1.5 (Late INa) (Q14524 whole entry): as above

[3] abbreviates: % inhibition, use-dependent block of peak INa at 3 uM, 3 Hz, pulse 50, read-out: Nav1.5 Peak UDB 3 Hz 3 uM.
The mark [4] stands for this setting: read-out: Nav1.5 Peak TB 3 uM, % inhibition, tonic block of peak INa at 3 uM, 0.1 Hz, holding -100 mV.

Where two headings read alike, the source gives them in different places.

Regarding `CC1c2cc(-c3cccc(OC(F)(F)F)c3)ccc2OC(=O)N1Cc1ncccn1` (stereo not shown) [Example 50, 4-methyl-3-(pyrimidin-2-ylmethyl)-6-(3-(trifluoromethoxy)phenyl)-3,4-dihydro-2H-benzo[e][1,3]oxazin-2-one], the figures for the inhibition at 3 µM in experiment [1] (setting [3]) and in experiment [1] (setting [4]) were 12.1% and 17.7%, respectively. The inhibition at 1 µM in experiment [2] came to 34.9%.

On to `Cc1csc(CN2Cc3cc(-c4ccc(OC(F)(F)F)cc4)ccc3OC2=O)n1` [Example 52, 3-((4-methylthiazol-2-yl)methyl)-6-(4-(trifluoromethoxy)phenyl)-3,4-dihydro-2H-benzo[e][1,3]oxazin-2-one], for which the inhibition at 3 µM in experiment [1] (setting [3]) was under 5%; in experiment [1] (setting [4]) it was 11.9%. Moreover, the inhibition at 1 µM in experiment [2] is 58%.

Take `Cc1csc(CN2Cc3cc(-c4ccc(OC(F)(F)F)c(F)c4)ccc3OC2=O)n1` [Example 53, 6-(3-fluoro-4-(trifluoromethoxy)phenyl)-3-((4-methylthiazol-2-yl)methyl)-3,4-dihydro-2H-benzo[e][1,3]oxazin-2-one]: the inhibition at 3 µM in experiment [1] (setting [3]) is under 5%; in experiment [1] (setting [4]), 19.8%. Also, the inhibition at 1 µM in experiment [2] worked out at 60.3%.

As for `Cc1csc(CN2Cc3cc(-c4ccc(OC(F)(F)F)c(C)c4)ccc3OC2=O)n1` [Example 54, 6-(3-methyl-4-(trifluoromethoxy)phenyl)-3-((4-methylthiazol-2-yl)methyl)-3,4-dihydro-2H-benzo[e][1,3]oxazin-2-one], the inhibition at 3 µM in experiment [1] (setting [3]) is under 5%; in experiment [1] (setting [4]) it was 11.2%. Also, the inhibition at 1 µM in experiment [2] was 31%.

Regarding `Cc1csc(CN2Cc3cc(-c4ccc(OC(F)(F)F)cc4F)ccc3OC2=O)n1` [Example 55, 6-(2-fluoro-4-(trifluoromethoxy)phenyl)-3-((4-methylthiazol-2-yl)methyl)-3,4-dihydro-2H-benzo[e][1,3]oxazin-2-one], the inhibition at 3 µM in experiment [1] (setting [3]) is under 5%; in experiment [1] (setting [4]), 16.1%. The inhibition at 1 µM in experiment [2] was found to be 35.3%.

`Cc1csc(CN2Cc3cc(-c4ccc(Cl)c(Cl)c4)ccc3OC2=O)n1` [Example 56, 6-(3,4-dichlorophenyl)-3-((4-methylthiazol-2-yl)methyl)-3,4-dihydro-2H-benzo[e][1,3]oxazin-2-one]: the inhibition at 3 µM in experiment [1] (setting [3]) is under 5%. Also, the inhibition at 1 µM in experiment [2] came out at 39%.

Turning to `Cc1csc(CN2Cc3cc(-c4ccc(OC(F)(F)F)cc4Cl)ccc3OC2=O)n1` [Example 57, 6-(2-chloro-4-(trifluoromethoxy)phenyl)-3-((4-methylthiazol-2-yl)methyl)-3,4-dihydro-2H-benzo[e][1,3]oxazin-2-one], the inhibition at 3 µM in experiment [1] (setting [3]) was under 5%. Further, the inhibition at 1 µM in experiment [2] was found to be 34.1%.

Take `COc1cc(OC(F)(F)F)ccc1-c1ccc2c(c1)CN(Cc1nc(C)cs1)C(=O)O2` [Example 58, 6-(2-methoxy-4-(trifluoromethoxy)phenyl)-3-((4-methylthiazol-2-yl)methyl)-3,4-dihydro-2H-benzo[e][1,3]oxazin-2-one]: the inhibition at 3 µM in experiment [1] (setting [3]) was under 5%; in experiment [1] (setting [4]), 7.9%. Also, in experiment [2], the inhibition at 1 µM is 44.1%.

Turning to `Cc1csc(CN2Cc3cc(-c4ccc(Cl)c(F)c4)ccc3OC2=O)n1` [Example 59, 6-(4-chloro-3-fluorophenyl)-3-((4-methylthiazol-2-yl)methyl)-3,4-dihydro-2H-benzo[e][1,3]oxazin-2-one], the values for the inhibition at 3 µM in experiment [1] (setting [3]) and in experiment [1] (setting [4]) were under 5% and 13%, respectively. The inhibition at 1 µM in experiment [2] is 50.3%.
